# Measurements reported in patent publication US8598365B2, “Herbicides” (Syngenta Limited, priority 2007, dated 2013).
# Key:
# Assay type in all cases: in vivo
# [1] = system: Avena fatua (AVEFA); experiment: Example B pre-emergence herbicidal activity; conditions: 312 h, rate 250 g/ha, evaluated after 13 days, read-out: Pre-Emergence Activity AVEFA (100=total damage to plant; 0=no damage to plant)
# Protocol: (§1) Seeds of a variety of test species were sown in standard soil in pots. After cultivation for one day (pre-emergence) or after 8 days cultivation (post-emergence) under controlled conditions in a glasshouse (at 24/16° C., day/night; 14 hours light; 65% humidity), the plants were sprayed with an aqueous spray solution derived from the formulation of the technical active ingredient in acetone/water (50:50) solution containing 0.5% Tween 20 (polyoxyethelyene sorbitan monolaurate, CAS RN 9005-64-5).
# (§2) The test plants were then grown in a glasshouse under controlled conditions in a glasshouse (at 24/16° C., day/night; 14 hours light; 65% humidity) and watered twice daily. After 13 days for pre and post-emergence, the test was evaluated (100=total damage to plant; 0=no damage to plant).
# (§3) Alopecurus myosuroides (ALOMY), Avena fatua (AVEFA), Setaria faberi (SETFA), Echinochloa crus-galli (ECHCG), Solanum nigrum (SOLNI) and Amaranthus retoflexus (AMARE)
# [2] = system: Amaranthus retoflexus (AMARE); experiment: Example B pre-emergence herbicidal activity; conditions: Amaranthus retroflexus, 312 h, rate 250 g/ha, evaluated after 13 days, read-out: Pre-Emergence Activity AMARE (100=total damage to plant; 0=no damage to plant)
# Protocol: as §1, §2, §3
# [3] = system: Echinochloa crus-galli (ECHCG); experiment: Example B pre-emergence herbicidal activity; conditions: 312 h, rate 250 g/ha, evaluated after 13 days, read-out: Pre-Emergence Activity ECHCG (100=total damage to plant; 0=no damage to plant)
# Protocol: as §1, §2, §3
# [4] = system: Alopecurus myosuroides (ALOMY); experiment: Example B pre-emergence herbicidal activity; conditions: 312 h, rate 250 g/ha, evaluated after 13 days, read-out: Pre-Emergence Activity ALOMY (100=total damage to plant; 0=no damage to plant)
# Protocol: as §1, §2, §3
# [5] = system: Setaria faberi (SETFA); experiment: Example B pre-emergence herbicidal activity; conditions: 312 h, rate 250 g/ha, evaluated after 13 days, read-out: Pre-Emergence Activity SETFA (100=total damage to plant; 0=no damage to plant)
# Protocol: as §1, §2, §3
# [6] = system: Avena fatua (AVEFA); experiment: Example B post-emergence herbicidal activity; conditions: 312 h, rate 250 g/ha, evaluated after 13 days, read-out: Post-emergence activity AVEFA (100=total damage to plant; 0=no damage to plant)
# Protocol: as §1, §2, §3
# [7] = system: Amaranthus retoflexus (AMARE); experiment: Example B post-emergence herbicidal activity; conditions: Amaranthus retroflexus, 312 h, rate 250 g/ha, evaluated after 13 days, read-out: Post-emergence activity AMARE (100=total damage to plant; 0=no damage to plant)
# Protocol: as §1, §2, §3
# [8] = system: Echinochloa crus-galli (ECHCG); experiment: Example B post-emergence herbicidal activity; conditions: 312 h, rate 250 g/ha, evaluated after 13 days, read-out: Post-emergence activity ECHCG (100=total damage to plant; 0=no damage to plant)
# Protocol: as §1, §2, §3
# [9] = system: Alopecurus myosuroides (ALOMY); experiment: Example B post-emergence herbicidal activity; conditions: 312 h, rate 250 g/ha, evaluated after 13 days, read-out: Post-emergence activity ALOMY (100=total damage to plant; 0=no damage to plant)
# Protocol: as §1, §2, §3
# [10] = system: Setaria faberi (SETFA); experiment: Example B post-emergence herbicidal activity; conditions: 312 h, rate 250 g/ha, evaluated after 13 days, read-out: Post-emergence activity SETFA (100=total damage to plant; 0=no damage to plant)
# Protocol: as §1, §2, §3
Compound,pest or weed control at 250 g/ha [1] [%],pest or weed control at 250 g/ha [2] [%],pest or weed control at 250 g/ha [3] [%],pest or weed control at 250 g/ha [4] [%],pest or weed control at 250 g/ha [5] [%],pest or weed control at 250 g/ha [6] [%],pest or weed control at 250 g/ha [7] [%],pest or weed control at 250 g/ha [8] [%],pest or weed control at 250 g/ha [9] [%],pest or weed control at 250 g/ha [10] [%]
CC(=O)OC1=C(c2nc(-c3ccc(Br)cc3C)sc2C)C(=O)[C@H]2CC[C@@H]1C2 [Compound P12],20,0,20,30,100,90,0,100,100,100
CCc1sc(-c2c(C)cc(Cl)cc2F)nc1C1C(=O)[C@@H]2CC[C@@H](C2)C1=O (stereo partly drawn) [Compound T45],30,0,100,90,100,100,0,100,100,100
Cc1sc(-c2ccc3c(c2)OCCO3)nc1C1C(=O)[C@@H]2CC[C@@H](C2)C1=O (stereo partly drawn) [Compound T64],0,0,0,20,0,0,0,50,0,70
"Cc1sc(-c2ccc(OC(F)(F)F)cc2)nc1C1C(=O)[C@@H]2CC[C@@H](C2)C1=O (stereo partly drawn) [Compound T5, 3-[5-methyl-2-(4-trifluoromethoxyphenyl)thiazol-4-yl]bicyclo[3.2.1]octane-2,4-dione]",0,0,80,50,90,0,0,100,70,100
Cc1sc(-c2ccc(I)cc2)nc1C1C(=O)[C@@H]2CC[C@@H](C2)C1=O (stereo partly drawn) [Compound T30],100,20,100,90,100,100,0,100,100,100
Cc1sc(-c2ccc(Cl)c(Cl)c2)nc1C1C(=O)[C@@H]2CC[C@@H](C2)C1=O (stereo partly drawn) [Compound T9],0,0,50,30,50,0,0,70,60,100
CSc1ccc(-c2nc(C3C(=O)[C@@H]4CC[C@@H](C4)C3=O)c(C)s2)cc1 (stereo partly drawn) [Compound T81],40,0,100,50,100,50,0,100,50,100
Cc1sc(-c2ccc(Br)cc2F)nc1C1C(=O)[C@@H]2CC[C@@H](C2)C1=O (stereo partly drawn) [Compound T32],80,0,100,90,100,90,0,100,100,100
Cc1cc(Br)ccc1-c1nc(C2=C(OC(=O)C(C)(C)C)[C@@H]3CC[C@@H](C3)C2=O)c(C)s1 [Compound P14],100,0,100,70,100,90,0,100,100,100
CCc1sc(-c2ccc(OC(F)F)cc2)nc1C1C(=O)[C@@H]2CC[C@@H](C2)C1=O (stereo partly drawn) [Compound T44],60,0,100,90,100,100,0,100,100,100
CCc1sc(COc2ccc(Cl)cc2)nc1C1C(=O)[C@@H]2CC[C@@H](C2)C1=O (stereo partly drawn) [Compound T41],0,0,100,80,40,70,0,100,100,100
CCOc1ccc(-c2nc(C3C(=O)[C@@H]4CC[C@@H](C4)C3=O)c(C)s2)cc1F (stereo partly drawn) [Compound T77],0,50,0,0,0,0,0,60,0,70
Cc1sc(-c2ccc(C(C)C)cc2)nc1C1C(=O)[C@@H]2CC[C@@H](C2)C1=O (stereo partly drawn) [Compound T87],50,20,60,20,60,60,0,90,50,90
CCc1sc(-c2ccc(OC)c(F)c2)nc1C1C(=O)[C@@H]2CC[C@@H](C2)C1=O (stereo partly drawn) [Compound T111],90,0,100,50,80,100,0,100,100,100
CCc1sc(-c2ccc(Cl)cc2F)nc1C1C(=O)[C@@H]2CC[C@@H](C2)C1=O (stereo partly drawn) [Compound T26],60,0,100,90,100,100,40,100,100,100
